Target: recombinant human HPK1 (Homo sapiens (Human), UniProt Q92918)
Assay: HPK1 kinase assay (ADP-Glo)
Format: biochemical
Conditions: 25 μM ATP, MBP substrate
In short: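 Activity was read as ADP formed, detected by ADP-Glo luminescence after the reaction of 5 ng recombinant human HPK1 with MBP and ATP (stocks 0.5 μg/μl and 25 μM) for 40 min at 30 °C. Buffer was Tris pH 7.5 with MgCl2, BSA and DTT, with compound in 0.5% DMSO. IC50 came from inhibition curves.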

Sequence of recombinant human HPK1 (Q92918 whole entry): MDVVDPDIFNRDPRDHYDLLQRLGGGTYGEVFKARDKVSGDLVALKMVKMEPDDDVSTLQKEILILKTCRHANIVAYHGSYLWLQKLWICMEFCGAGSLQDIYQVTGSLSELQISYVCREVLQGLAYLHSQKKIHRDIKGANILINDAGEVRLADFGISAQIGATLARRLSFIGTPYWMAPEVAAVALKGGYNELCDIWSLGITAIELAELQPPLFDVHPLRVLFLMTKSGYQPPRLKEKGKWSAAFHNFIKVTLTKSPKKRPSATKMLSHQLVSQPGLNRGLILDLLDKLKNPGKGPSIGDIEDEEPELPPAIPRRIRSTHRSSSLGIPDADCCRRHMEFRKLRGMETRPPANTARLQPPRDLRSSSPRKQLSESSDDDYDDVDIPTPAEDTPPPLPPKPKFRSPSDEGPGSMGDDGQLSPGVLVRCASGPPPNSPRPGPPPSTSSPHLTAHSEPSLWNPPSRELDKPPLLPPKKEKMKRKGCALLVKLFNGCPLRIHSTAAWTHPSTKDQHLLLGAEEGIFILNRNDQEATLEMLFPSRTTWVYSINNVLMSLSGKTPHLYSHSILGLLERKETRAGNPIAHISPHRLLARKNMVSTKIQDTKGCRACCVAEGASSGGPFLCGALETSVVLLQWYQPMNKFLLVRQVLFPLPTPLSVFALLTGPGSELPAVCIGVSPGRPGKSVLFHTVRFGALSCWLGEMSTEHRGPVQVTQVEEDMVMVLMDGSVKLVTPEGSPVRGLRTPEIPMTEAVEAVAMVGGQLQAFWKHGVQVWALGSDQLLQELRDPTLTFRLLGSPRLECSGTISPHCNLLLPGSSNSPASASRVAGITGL

IC50 [µM]	Structure (SMILES)
> 1	CN(C)c1c(F)cc(-c2ccc3nc(NC(=O)[C@@H]4C[C@@H]4F)sc3n2)c2cn[nH]c12 [Example 214, (1S,2S)-N-(5-(7-(dimethylamino)-6-fluoro-1H-indazol-4-yl)thiazolo[5,4-b]pyridin-2-yl)-2-fluorocyclopropane-1-carboxamide]
0.501 to 1	CC(=O)c1ccc2[nH]ncc2c1-c1ccn2nc(NC(=O)[C@@H]3C[C@@H]3F)cc2c1 [Example 453, (1S,2S)-N-(5-(5-acetyl-1H-indazol-4-yl)pyrazolo[1,5-a]pyridin-2-yl)-2-fluorocyclopropane-1-carboxamide]
< 0.1	Cc1c(F)c([S+](C)[O-])c2[nH]ncc2c1-c1ccc2nc(NC(=O)[C@@H]3C[C@@H]3F)sc2c1 (stereo partly drawn) [Example 66, (1S,2S)-2-fluoro-N-(6-(6-fluoro-5-methyl-7-(methylsulfinyl)-1H-indazol-4-yl)benzo[d]thiazol-2-yl)cyclopropane-1-carboxamide]
> 1	O=C(Nc1cn2cc(-c3c(CO)c(F)cc4[nH]ncc34)ccc2n1)C1CC1 [Example 251, N-(6-(6-fluoro-5-(hydroxymethyl)-1H-indazol-4-yl)imidazo[1,2-a]pyridin-2-yl)cyclopropanecarboxamide]
< 0.1	O=C(Nc1cc2cc(-c3c(Cl)c(F)c(-n4cccc4)c4[nH]ncc34)ccn2n1)[C@@H]1C[C@@H]1F [Example 637, (1S,2S)-N-(5-(5-chloro-6-fluoro-7-(1H-pyrrol-1-yl)-1H-indazol-4-yl)pyrazolo[1,5-a]pyridin-2-yl)-2-fluorocyclopropane-1-carboxamide]
< 0.1	CN(C)c1c(F)cc(-c2ccc3nc(NC(=O)[C@@H]4C[C@@H]4F)sc3c2)c2cn[nH]c12 [Example 139, (1S,2S)-N-(6-(7-(dimethylamino)-6-fluoro-1H-indazol-4-yl)benzo[d]thiazol-2-yl)-2-fluorocyclopropane-1-carboxamide]
0.101 to 0.5	CN(Nc1c(F)c(Cl)c(-c2ccc3nc(NC(=O)[C@@H]4C[C@@H]4F)sc3c2)c2cn[nH]c12)C(=O)OC(C)(C)C [Example 114, tert-butyl 2-(5-chloro-6-fluoro-4-(2-((1S,2S)-2-fluorocyclopropane-1-carboxamido)benzo[d]thiazol-6-yl)-1H-indazol-7-yl)-1-methylhydrazine-1-carboxylate]
< 0.1	Cc1c(F)c(S(C)(=O)=O)c2[nH]ncc2c1-c1ccn2nc(NC(=O)[C@@H]3C[C@@H]3F)cc2c1 [Example 489, (1S,2S)-2-fluoro-N-(5-(6-fluoro-5-methyl-7-(methylsulfonyl)-1H-indazol-4-yl)pyrazolo[1,5-a]pyridin-2-yl)cyclopropane-1-carboxamide]
< 0.1	CN(C)c1c(F)c(Cl)c(-c2ccn3nc(NC(=O)NC4CC4)cc3c2)c2cn[nH]c12 [Example 647, 1-(5-(5-chloro-7-(dimethylamino)-6-fluoro-1H-indazol-4-yl)pyrazolo[1,5-a]pyridin-2-yl)-3-cyclopropylurea]
< 0.1	Cc1c(F)c(C)c2[nH]ncc2c1-c1ccn2nc(NC(=O)[C@@H]3C[C@@H]3F)cc2c1 [Example 477, (1S,2S)-2-fluoro-N-(5-(6-fluoro-5,7-dimethyl-1H-indazol-4-yl)pyrazolo[1,5-a]pyridin-2-yl)cyclopropane-1-carboxamide]
> 1	C=CC(=O)Nc1cc2[nH]ncc2c(-c2ccc3nc(NC(=O)[C@@H]4C[C@@H]4F)cn3c2)c1Cl [Example 286, (1S,2S)-N-(6-(6-acrylamido-5-chloro-1H-indazol-4-yl)imidazo[1,2-a]pyridin-2-yl)-2-fluorocyclopropane-1-carboxamide]
< 0.1	CSc1c(F)c(F)c2[nH]ncc2c1-c1ccc2nc(NC(=O)[C@@H]3C[C@@H]3F)sc2n1 [Example 187, (1S,2S)-N-(5-(6,7-difluoro-5-(methylthio)-1H-indazol-4-yl)thiazolo[5,4-b]pyridin-2-yl)-2-fluorocyclopropane-1-carboxamide]
< 0.1	COCC1CN(c2c(F)c(Cl)c(-c3ccn4nc(NC(=O)[C@@H]5C[C@@H]5F)cc4c3)c3cn[nH]c23)C1 [Example 627, (1S,2S)-N-(5-(5-chloro-6-fluoro-7-(3-(methoxymethyl)azetidin-1-yl)-1H-indazol-4-yl)pyrazolo[1,5-a]pyridin-2-yl)-2-fluorocyclopropane-1-carboxamide]
< 0.1	CSc1c(F)c(F)c2[nH]ncc2c1-c1ccn2nc(NC(=O)[C@@H]3C[C@H]3F)cc2c1 [Example 599, (1S,2R)-N-(5-(6,7-difluoro-5-(methylthio)-1H-indazol-4-yl)pyrazolo[1,5-a]pyridin-2-yl)-2-fluorocyclopropane-1-carboxamide]
< 0.1	Cc1c(F)c(Cl)c(-c2ccc3nc(NC(=O)[C@@H]4C[C@@H]4F)sc3n2)c2cn[nH]c12 [Example 211, (1S,2S)-N-(5-(5-chloro-6-fluoro-7-methyl-1H-indazol-4-yl)thiazolo[5,4-b]pyridin-2-yl)-2-fluorocyclopropane-1-carboxamide]
> 1	Nc1c(F)cc2[nH]ncc2c1-c1ccc2nc(NC(=O)C3CC3)cn2c1 [Example 227, N-(6-(5-amino-6-fluoro-1H-indazol-4-yl)imidazo[1,2-a]pyridin-2-yl)cyclopropanecarboxamide]
> 1	CN(C)C(=O)c1c(F)cc2[nH]ncc2c1-c1ccc2nc(NC(=O)[C@@H]3C[C@@H]3F)cn2c1 [Example 355, 6-fluoro-4-(2-((1S,2S)-2-fluorocyclopropane-1-carboxamido)imidazo[1,2-a]pyridin-6-yl)-N,N-dimethyl-1H-indazole-5-carboxamide]
> 1	O=C(Nc1nc2ccc(-c3ccc(Cl)c4[nH]ncc34)cc2s1)C1CC1 [Example 19, N-(6-(7-chloro-1H-indazol-4-yl)benzo[d]thiazol-2-yl)cyclopropanecarboxamide]
< 0.1	Cc1c(F)c(OC(F)(F)F)c2[nH]ncc2c1-c1ccc2nc(NC(=O)[C@@H]3C[C@@H]3F)cn2c1 [Example 345, (1S,2S)-2-fluoro-N-(6-(6-fluoro-5-methyl-7-(trifluoromethoxy)-1H-indazol-4-yl)imidazo[1,2-a]pyridin-2-yl)cyclopropane-1-carboxamide]
< 0.1	Cc1c(F)c(OCCNC(=O)C(F)(F)F)c2[nH]ncc2c1-c1ccn2nc(NC(=O)[C@@H]3C[C@@H]3F)cc2c1 [Example 547, (1S,2S)-2-fluoro-N-(5-(6-fluoro-5-methyl-7-(2-(2,2,2-trifluoroacetamido)ethoxy)-1H-indazol-4-yl)pyrazolo[1,5-a]pyridin-2-yl)cyclopropane-1-carboxamide]
< 0.1	O=C(Nc1nc2ccc(-c3c(C(F)(F)F)c(F)cc4[nH]ncc34)cc2s1)[C@@H]1C[C@@H]1F [Example 50, (1S,2S)-2-fluoro-N-(6-(6-fluoro-5-(trifluoromethyl)-1H-indazol-4-yl)benzo[d]thiazol-2-yl)cyclopropane-1-carboxamide]
< 0.1	Cc1c(F)c(F)c2[nH]ncc2c1-c1ccc2nc(NC(=O)[C@@H]3C[C@@H]3F)cn2c1 [Example 262, (1S,2S)-N-(6-(6,7-difluoro-5-methyl-1H-indazol-4-yl)imidazo[1,2-a]pyridin-2-yl)-2-fluorocyclopropane-1-carboxamide]
< 0.1	CCOC(=O)CSc1c(F)c(CC)c(-c2ccc3nc(NC(=O)[C@@H]4C[C@@H]4F)sc3n2)c2cn[nH]c12 [Example 165, ethyl 2-((5-ethyl-6-fluoro-4-(2-((1S,2S)-2-fluorocyclopropane-1-carboxamido)thiazolo[5,4-b]pyridin-5-yl)-1H-indazol-7-yl)thio)acetate]
0.101 to 0.5	CN(C)C(=O)c1c(F)cc(-c2ccn3nc(NC(=O)[C@@H]4C[C@@H]4F)cc3c2)c2cn[nH]c12 [Example 604, 6-fluoro-4-(2-((1S,2S)-2-fluorocyclopropane-1-carboxamido)pyrazolo[1,5-a]pyridin-5-yl)-N,N-dimethyl-1H-indazole-7-carboxamide]
< 0.1	O=C(Nc1cc2cc(-c3c(Cl)c(F)c(N4CCS(=O)(=O)CC4)c4[nH]ncc34)ccn2n1)[C@@H]1C[C@@H]1F [Example 628, (1S,2S)-N-(5-(5-chloro-7-(1,1-dioxidothiomorpholino)-6-fluoro-1H-indazol-4-yl)pyrazolo[1,5-a]pyridin-2-yl)-2-fluorocyclopropane-1-carboxamide]
0.101 to 0.5	O=C(Nc1nc2ccc(-c3c(C4CC4)c(F)cc4[nH]ncc34)nc2s1)[C@@H]1C[C@@H]1F [Example 158, (1S,2S)-N-(5-(5-cyclopropyl-6-fluoro-1H-indazol-4-yl)thiazolo[5,4-b]pyridin-2-yl)-2-fluorocyclopropane-1-carboxamide]
< 0.1	C[C@H](c1c(F)c(Cl)c(-c2ccc3nc(NC(=O)[C@@H]4C[C@@H]4F)cn3c2)c2cn[nH]c12)n1cnnn1 [Example 413]
< 0.1	O=C(Nc1nc2ccc(-c3c(Cl)c(F)c(F)c4[nH]ncc34)cc2s1)[C@@H]1C[C@@H]1F [Example 126, (1S,2S)-N-(6-(5-chloro-6,7-difluoro-1H-indazol-4-yl)benzo[d]thiazol-2-yl)-2-fluorocyclopropane-1-carboxamide]
0.101 to 0.5	Cc1c(F)c(F)c2[nH]nc(F)c2c1-c1ccc2nc(NC(=O)[C@@H]3C[C@@H]3F)sc2c1 [Example 55, (1S,2S)-2-fluoro-N-(6-(3,6,7-trifluoro-5-methyl-1H-indazol-4-yl)benzo[d]thiazol-2-yl)cyclopropane-1-carboxamide]
< 0.1	CN(c1ncccn1)c1c(F)c(Cl)c(-c2ccn3nc(NC(=O)[C@@H]4C[C@@H]4F)cc3c2)c2cn[nH]c12 [Example 596, (1S,2S)-N-(5-(5-chloro-6-fluoro-7-(methyl(pyrimidin-2-yl)amino)-1H-indazol-4-yl)pyrazolo[1,5-a]pyridin-2-yl)-2-fluorocyclopropane-1-carboxamide]

Reference: US11649255B2, “Indazoles as hematopoietic progenitor kinase 1 (HPK1) inhibitors and methods using same” (1st Biotherapeutics, Inc., priority 2020, dated 2023)
